21 molecules from US20240376056A1, “PHENYL ACETAMIDE BASED IL-17A MODULATORS AND USES THEREOF” (DiCE Alpha, Inc., priority 2021, published 2024) can be followed below.

The target of the assay is T1, IL-17A/A (Homo sapiens, UniProt Q16552).
T1 construct: purchased Genscript Z03228
T1 sequence (Q16552 24-155): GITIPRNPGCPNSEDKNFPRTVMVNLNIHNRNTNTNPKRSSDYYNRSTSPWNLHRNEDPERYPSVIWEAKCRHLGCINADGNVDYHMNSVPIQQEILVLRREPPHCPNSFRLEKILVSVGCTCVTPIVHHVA
In words: HEK-Blue IL-17A/A inhibition assay (SEAP reporter). The assay is classed as cell-based. As to conditions: HEK-Blue cells (HEK 293 expressing IL-17RA, IL-17RC, Act1); IL-17A/A stimulation; 20 hours; SEAP read at A630; 4-parameter fit. In short, it runs like this:
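IC50 from a 4-parameter fit of SEAP signal (Quanti-Blue, A630) after 20 h co-incubation of compound and IL-17A/A. Reporter line: HEK 293 expressing IL-17RA, IL-17RC and Act1 with NFκB-SEAP; compound top final 10, 1 or 0.3 uM, DMSO 0.1% final.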

Each structure is given as a SMILES string.

By IC50 is commonly meant the concentration at which inhibition is half-maximal. Take `CC(C)n1nccc1C(=O)N[C@H](C(=O)Nc1ccc([C@H](C)C(=O)NC2(C(F)(F)F)COC2)cc1F)C(C1CC1)C1CC1` [Compound 43, N-((S)-1.1-dicyclopropyl-3-((2-fluoro-4-((S)-1-oxo-1-((3-(trifluoromethyl)oxetan-3-yl)amino)propan-2-yl)phenyl)amino)-3-oxopropan-2-yl)-1-isopropyl-1H-pyrazole-5-carboxamide]: the 50% inhibitory concentration (IC50) was over 1 µM.

Regarding `CC(C)n1nccc1C(=O)N[C@H](C(=O)Nc1ccc([C@H](C)C(=O)NCC(F)(F)C(F)(F)F)cc1F)C(C1CC1)C1CC1` [Compound 44, N-((S)-1,1-dicyclopropyl-3-((2-fluoro-4-((S)-1-oxo-1-((2,2,3,3,3-pentafluoropropyl)amino)propan-2-yl)phenyl)amino)-3-oxopropan-2-yl)-1-isopropyl-1H-pyrazole-5-carboxamide], the IC50 lay within 0.1 to 1 µM.

Consider `CC(C)n1nccc1C(=O)N[C@H](C(=O)Nc1ccc([C@H](C)C(=O)N2CCOCCC2C(F)(F)F)cc1F)C(C1CC1)C1CC1` (stereo partly drawn) [Compound 45, N-((2S)-1,1-dicyclopropyl-3-((2-fluoro-4-((2S)-1-oxo-1-(5-(trifluoromethyl)-1,4-oxazepan-4-yl)propan-2-yl)phenyl)amino)-3-oxopropan-2-yl)-1-isopropyl-1H-pyrazole-5-carboxamide], for which the IC50 is 0.1 to 1 µM.

Regarding `CC(C)n1nccc1C(=O)N[C@H](C(=O)Nc1ccc([C@H](C)C(=O)NC2(C(F)(F)F)CN(C(=O)OC(C)(C)C)C2)cc1F)C(C1CC1)C1CC1` [Compound 46, tert-butyl 3-((S)-2-(4-((S)-3,3-dicyclopropyl-2-(1-isopropyl-1H-pyrazole-5-carboxamido)propanamido)-3-fluorophenyl)propanamido)-3-(trifluoromethyl)azetidine-1-carboxylate], the IC50 was over 1 µM.

For `CC(C)n1nccc1C(=O)N[C@H](C(=O)Nc1ccc([C@H](C)C(=O)N2CC(F)CC2C(F)(F)F)cc1F)C(C1CC1)C1CC1` (stereo partly drawn) [Compound 47, N-((2S)-1,1-dicyclopropyl-3-((2-fluoro-4-((2S)-1-(4-fluoro-2-(trifluoromethyl)pyrrolidin-1-yl)-1-oxopropan-2-yl)phenyl)amino)-3-oxopropan-2-yl)-1-isopropyl-1H-pyrazole-5-carboxamide], the half-inhibitory concentration (IC50) was under 0.1 µM.

Turning to `CC(C)n1nccc1C(=O)N[C@H](C(=O)Nc1ccc([C@H](C)C(=O)NCC(F)(F)F)cc1F)C1CCC(F)(F)CC1` [Compound 50, N-((S)-1-(4,4-difluorocyclohexyl)-2-((2-fluoro-4-((S)-1-oxo-1-((2,2,2-trifluoroethyl)amino)propan-2-yl)phenyl)amino)-2-oxoethyl)-1-isopropyl-1H-pyrazole-5-carboxamide], the IC50 fell in the range of 0.1 to 1 µM.

On to `CC(C)n1nccc1C(=O)N[C@H](C(=O)Nc1ccc([C@H](C)C(=O)N(C)CC(F)(F)F)cc1F)C1CCC(F)(F)CC1` [Compound 51, N-((S)-1-(4,4-difluorocyclohexyl)-2-((2-fluoro-4-((S)-1-(methyl(2,2,2-trifluoroethyl)amino)-1-oxopropan-2-yl)phenyl)amino)-2-oxoethyl)-1-isopropyl-1H-pyrazole-5-carboxamide], for which the half-maximal inhibitory concentration (IC50) lay in the range of 0.1 to 1 µM.

Regarding `CC(C)n1nccc1C(=O)N[C@H](C(=O)Nc1ccc([C@H](C)C(=O)NC2(C(F)(F)F)CNC2)cc1F)C(C1CC1)C1CC1` [Compound 52, N-((S)-1.1-dicyclopropyl-3-((2-fluoro-4-((S)-1-oxo-1-((3-(trifluoromethyl)azetidin-3-yl)amino)propan-2-yl)phenyl)amino)-3-oxopropan-2-yl)-1-isopropyl-1H-pyrazole-5-carboxamide], the IC50 is over 1 µM.

For the molecule `CC(C)n1nccc1C(=O)N[C@H](C(=O)Nc1ccc([C@H](C)C(=O)N[C@H](C)C(F)(F)F)cc1F)C(C1CC1)C1CC1` [Compound 54, N-((S)-1,1-dicyclopropyl-3-((2-fluoro-4-((S)-1-oxo-1-(((R)-1,1,1-trifluoropropan-2-yl)amino)propan-2-yl)phenyl)amino)-3-oxopropan-2-yl)-1-isopropyl-1H-pyrazole-5-carboxamide], the IC50 was over 1 µM.

Regarding `CC(C)n1nccc1C(=O)N[C@H](C(=O)Nc1ccc([C@H](C)C(=O)N[C@@H](C)C(F)(F)F)cc1F)C(C1CC1)C1CC1` [Compound 55, N-((S)-1,1-dicyclopropyl-3-((2-fluoro-4-((S)-1-oxo-1-(((S)-1,1,1-trifluoropropan-2-yl)amino)propan-2-yl)phenyl)amino)-3-oxopropan-2-yl)-1-isopropyl-1H-pyrazole-5-carboxamide], the IC50 was 0.1 to 1 µM.

With `CC(C)n1nccc1C(=O)N[C@H](C(=O)Nc1ccc([C@H](C)C(=O)N2CCOc3ccccc3C2C(F)(F)F)cc1F)C(C1CC1)C1CC1` (stereo partly drawn) [Compound 56, N-((2S)-1,1-dicyclopropyl-3-((2-fluoro-4-((2S)-1-oxo-1-(5-(trifluoromethyl)-2,3-dihydrobenzo[f][1,4]oxazepin-4(5H)-yl)propan-2-yl)phenyl)amino)-3-oxopropan-2-yl)-1-isopropyl-1H-pyrazole-5-carboxamide], the IC50 fell in the range of 0.1 to 1 µM.

For the molecule `CC(C)n1nccc1C(=O)N[C@H](C(=O)Nc1ccc([C@H](C)C(=O)NCC(C)(F)F)cc1F)C(C1CC1)C1CC1` [Compound 57, N-((S)-1,1-dicyclopropyl-3-((4-((S)-1-((2,2-difluoropropyl)amino)-1-oxopropan-2-yl)-2-fluorophenyl)amino)-3-oxopropan-2-yl)-1-isopropyl-1H-pyrazole-5-carboxamide], the half-inhibitory concentration (IC50) was 0.1 to 1 µM.

Consider `CC(C)n1nccc1C(=O)N[C@H](C(=O)Nc1ccc([C@H](C)C(=O)N2C[C@H](F)C[C@H]2C(F)(F)F)cc1F)C(C1CC1)C1CC1` [Compound 58, N-((S)-1,1-dicyclopropyl-3-((2-fluoro-4-((S)-1-((2S,4R)-4-fluoro-2-(trifluoromethyl)pyrrolidin-1-yl)-1-oxopropan-2-yl)phenyl)amino)-3-oxopropan-2-yl)-1-isopropyl-1H-pyrazole-5-carboxamide], for which the 50% inhibitory concentration (IC50) fell in the range of 0.1 to 1 µM.

Turning to `CC(C)n1nccc1C(=O)N[C@H](C(=O)Nc1ccc([C@H](C)C(=O)N2C[C@@H](F)C[C@@H]2C(F)(F)F)cc1F)C(C1CC1)C1CC1` [Compound 59, N-((S)-1,1-dicyclopropyl-3-((2-fluoro-4-((S)-1-((2R^4S)-4-fluoro-2-(trifluoromethyl)pyrrolidin-1-yl)-1-oxopropan-2-yl)phenyl)amino)-3-oxopropan-2-yl)-1-isopropyl-1H-pyrazole-5-carboxamide], the IC50 is over 1 µM.

On to `CC(C)n1nccc1C(=O)N[C@H](C(=O)Nc1ccc([C@H](C)C(=O)N2C[C@@H](F)C[C@H]2C(F)(F)F)cc1F)C(C1CC1)C1CC1` [Compound 60, N-((S)-1,1-dicyclopropyl-3-((2-fluoro-4-((S)-1-((2S,4S)-4-fluoro-2-(trifluoromethyl)pyrrolidin-1-yl)-1-oxopropan-2-yl)phenyl)amino)-3-oxopropan-2-yl)-1-isopropyl-1H-pyrazole-5-carboxamide], for which the concentration for half-maximal inhibition (IC50) is under 0.1 µM.

Turning to `CCOC(=O)CC(NC(=O)[C@@H](C)c1ccc(NC(=O)[C@@H](NC(=O)c2ccnn2C(C)C)C(C2CC2)C2CC2)c(F)c1)C(F)(F)F` (stereo partly drawn) [Compound 61, ethyl 3-((S)-2-(4-((S)-3,3-dicyclopropyl-2-(1-isopropyl-1H-pyrazole-5-carboxamido)propanamido)-3-fluorophenyl)propanamido)-4,4,4-trifluorobutanoate], the IC50 was under 0.1 µM.

For the molecule `COC(=O)C(NC(=O)[C@@H](C)c1ccc(NC(=O)[C@@H](NC(=O)c2ccnn2C(C)C)C(C2CC2)C2CC2)c(F)c1)C(F)(F)F` (stereo partly drawn) [Compound 62], the IC50 lay within 0.1 to 1 µM.

For `CC(C)n1nccc1C(=O)N[C@H](C(=O)Nc1ccc([C@H](C)C(=O)NC(C(N)=O)C(F)(F)F)cc1F)C(C1CC1)C1CC1` (stereo partly drawn) [Compound 63, N-((2S)-1-((4-((2S)-1-((3-amino-1,1-trifluoro-3-oxopropan-2-yl)amino)-1-oxopropan-2-yl)-2-fluorophenyl)amino)-3,3-dicyclopropyl-1-oxopropan-2-yl)-1-isopropyl-1H-pyrazole-5-carboxamide], the half-inhibitory concentration (IC50) is under 0.1 µM.

For the molecule `CC(C)n1nccc1C(=O)N[C@H](C(=O)Nc1ccc([C@H](C)C(=O)N2CC[C@H]2C(F)(F)F)cc1F)C(C1CC1)C1CC1` [Compound 64, N-((S)-1,1-dicyclopropyl-3-((2-fluoro-4-((S)-1-oxo-1-((S)-2-(trifluoromethyl)azetidin-1-yl)propan-2-yl)phenyl)amino)-3-oxopropan-2-yl)-1-isopropyl-1H-pyrazole-5-carboxamide], the concentration for half-maximal inhibition (IC50) fell in the range of 0.1 to 1 µM.

Regarding `CC(C)n1nccc1C(=O)N[C@H](C(=O)Nc1ccc([C@H](C)C(=O)NCC(F)(F)CO)cc1F)C(C1CC1)C1CC1` [Compound 65, N-((S)-1,1-dicyclopropyl-3-((4-((S)-1-((2,2-difluoro-3-hydroxypropyl)amino)-1-oxopropan-2-yl)-2-fluorophenyl)amino)-3-oxopropan-2-yl)-1-isopropyl-1H-pyrazole-5-carboxamide], the IC50 is over 1 µM.

Consider `CC(C)n1nccc1C(=O)N[C@H](C(=O)Nc1ccc([C@H](C)C(=O)NC(c2ccccc2)C(F)(F)F)cc1F)C(C1CC1)C1CC1` (stereo partly drawn) [Compound 66, N-((2S)-1,1-dicyclopropyl-3-((2-fluoro-4-((2S)-1-oxo-1-((2,2,2-trifluoro-1-phenylethyl)amino)propan-2-yl)phenyl)amino)-3-oxopropan-2-yl)-1-isopropyl-1H-pyrazole-5-carboxamide], for which the IC50 fell in the range of 0.1 to 1 µM.
